The record followed here is patent US9763445B2, “Safened herbicidal compositions comprising a pyridine carboxylic acid herbicide” (Dow AgroSciences, LLC, priority 2014, dated 2017).

For one data set, the system named is common poppy (PAPRH). Kind of data set: Postemergence greenhouse trial, % visual injury on common poppy. Particulars: Papaver rhoeas, post-emergence, PAPRH, applied alone, read-out: % visual injury, Ob. It is filed as in vivo, Papaver rhoeas. The protocol:
(§1) Seeds of the desired test plant species were planted in Sun Gro MetroMix® 306 planting mixture, which typically has a pH of 6.0 to 6.8 and an organic matter content of about 30 percent, in plastic pots with a surface area of 103.2 square centimeters (cm^2). When required to ensure good germination and healthy plants, a fungicide treatment and/or other chemical or physical treatment was applied. The plants were grown for 7-36 days (d) in a greenhouse with an approximate 14-hour (h) photoperiod which was maintained at about 23° C. during the day and 22° C. during the night. Nutrients and water were added on a regular basis and supplemental lighting was provided with overhead metal halide 1000-Watt lamps as necessary. The plants were employed for testing when they reached the second or third true leaf stage.
(§2) Weighed amounts of technical material were dissolved in a volume of 97:3 volume per volume (v/v) acetone/dimethyl sulfoxide (DMSO) to stock solutions. […] The concentrated stock solutions were diluted with an aqueous mixture of 1.5% v/v of Agri-dex crop oil concentrate to provide the appropriate application rates. Compound requirements are based upon a 12 milliliter (mL) application volume at a rate of 187 liters per hectare (L/ha). Stocks solutions of the safeners were prepared following the same procedure. Spray solutions of the safeners and experimental compound mixtures were prepared by adding the stock solutions to the appropriate amount of dilution solution to form a 12 mL spray solution in two-way combinations. Formulated compounds were applied to the plant material with an overhead Mandel track sprayer equipped with 8002E nozzles calibrated to deliver 187 L/ha over an application area of 0.503 square meters (m^2) at a spray height of 18 inches (43 centimeters (cm)) above average plant canopy. Control plants were sprayed in the same manner with the solvent blank. All herbicide application (component a) rates are in g ae/ha and all safener (component b) rates are in g ai/ha.
(§3) The treated plants and control plants were placed in a greenhouse as described above and watered by sub-irrigation to prevent wash-off of the test compounds. After 20-22 d, the condition of the test plants as compared with that of the control plants was determined visually and scored on a scale of 0 to 100 percent where 0 corresponds to no injury and 100 corresponds to complete kill. Colby's equation was used to determine the herbicidal effects expected from the mixtures. […]

For another data set, the system named is kochia (KCHSC). Description: Postemergence greenhouse trial, % visual injury on kochia. The format is in vivo, Kochia scoparia. Particulars: Bassia scoparia, post-emergence, read-out: % visual injury, Ob; for pest or weed control at 4.375 g/ha / pest or weed control at 8.75 g/ha / pest or weed control at 17.5 g/ha / pest or weed control at 35 g/ha / pest or weed control at 70 g/ha: KCHSC, applied alone. The protocol: as §1, §2, §3

The subject of the next data set is spring barley (HORVS). Kind of data set: Postemergence greenhouse trial, % visual injury on spring barley. It is filed as in vivo, Hordeum vulgare. Here is the method:
as §1, §2
(§4) The treated plants and control plants were placed in a greenhouse as described above and watered by sub-irrigation to prevent wash-off of the test compounds. After 20-22 d, the condition of the test plants as compared with that of the control plants was determined visually and scored on a scale of 0 to 100 percent where 0 corresponds to no injury and 100 corresponds to complete kill. The condition of the test plants was compared with that of the control plants as determined visually and scored on a scale of 0 to 100 percent, where 0 corresponds to no injury and 100 corresponds to complete kill. Colby's equation was used to determine the herbicidal effects expected from the mixtures.
(§5) The safener cloquintocet-mexyl was combined with compound 1, compound 2, compound 3, compound 7, compound 8, compound 9, compound 10, compound 11, compound 12, compound 13, compound 14, compound 15, compound 16, compound 17, compound 18, compound 19, and compound 20, and applied to spring wheat (TRZAS), winter wheat (TRZAW), and spring barley (HORVS) and the phytotoxicity of the herbicidal compositions was measured. […]

In another data set the test system is spring wheat (TRZAS). Description: Postemergence greenhouse trial, % visual injury on spring wheat. It is filed as in vivo, Triticum aestivum. Here is the method:
as §1, §2, §4
(§6) The safener cloquintocet-mexyl was combined with compound 1, compound 2, compound 4, compound 5, and compound 6, and applied to corn/maize (ZEAMX) and spring wheat (TRZAS) and the phytotoxicity of the herbicidal compositions was measured. In addition, the efficacy of the herbicidal composition on velvetleaf (ABUTH, Abutilon theophrasti), pigweed (AMARE, Amaranthus retroflexus), winter rape (BRSNW, Brassica napus), lambsquarters (CHEAL, Chenopodium album), thistle (CIRAR, Cirsium arvense), nutsedge (CYPES, Cyperus esculentus), poinsettia (EPHHL, Euphorbia heterophylla), wild buckwheat (POLCO, Polygonum convolvulus), giant foxtail (SETFA, Setaria faberi), and chickweed (STEME, Stellaria media) was evaluated.
as §5

The test system of a further data set is winter rape (BRSNW). Kind of data set: Postemergence greenhouse trial, % visual injury on winter rape. The format is in vivo, Brassica napus. As to conditions: Brassica napus, post-emergence, BRSNW, applied alone, read-out: % visual injury, Ob. Here is the method: as §1, §2, §4
as §6, with “evaluated. […]” for “evaluated.”

In the next data set the test system is pigweed (AMARE). Kind of data set: Postemergence greenhouse trial, % visual injury on pigweed. It is filed as in vivo, Amaranthus retroflexus. As to conditions: Amaranthus retroflexus, post-emergence, read-out: % visual injury, Ob. The protocol:
as §1, §2, §4
as §6, with “evaluated. […]” for “evaluated.”
The safener cloquintocet-acid and a number of agriculturally acceptable esters and salts (-mexyl, -dimethylammonium salt and -triethylammonium salt) were combined in varying ratios with compound 1 and applied to spring wheat (TRZAS), winter wheat (TRZAW), and spring barley (HORVS), and the phytotoxicity of the herbicidal compositions was measured. […]

The test system of another data set is lambsquarters (CHEAL). Description: Postemergence greenhouse trial, % visual injury on lambsquarters. The format is in vivo, Chenopodium album. Particulars: Chenopodium album, post-emergence, read-out: % visual injury, Ob. The protocol: as §1, §2, §4, §6, §5
[1] abbreviates: HORVS, 4.375 g/ha, applied alone.
Where [2] appears, read: HORVS, 8.75 g/ha, applied alone.
Setting [3] is: HORVS, 17.5 g/ha, applied alone.
The mark [4] stands for this setting: TRZAS, 4.375 g/ha, applied alone.
Setting [5] is: TRZAS, 8.75 g/ha, applied alone.
The mark [6] stands for this setting: TRZAS, 17.5 g/ha, applied alone.

As for `COC(=O)c1nc(-c2ccc3sccc3c2)c(F)c(N)c1Cl` [compound 18], the pest or weed control at 4.375 g/ha with common poppy (PAPRH) is 90%; in the data set on kochia (KCHSC) it was 30%. In addition, the pest or weed control at 8.75 g/ha in the data set on common poppy (PAPRH) turned out to be 90%; in the data set on kochia (KCHSC), 40%. The pest or weed control at 17.5 g/ha in the data set with common poppy (PAPRH) worked out at 93%; in the data set on kochia (KCHSC), 75%. In addition, the pest or weed control at 35 g/ha in the data set with common poppy (PAPRH) and in the data set on kochia (KCHSC) was 93% throughout. The figures for the pest or weed control at 70 g/ha in the data set with common poppy (PAPRH) and in the data set with kochia (KCHSC) were 95% and 90%, respectively. The “% visual injury, Ob” value with spring barley (HORVS) (setting [1]) was found to be 15%; in the data set on spring barley (HORVS) (setting [2]) it was 25%; in the data set with spring barley (HORVS) (setting [3]), 40%; in the data set with spring barley (HORVS) (HORVS, 35 g/ha, applied alone) it was 50%; in the data set with spring barley (HORVS) (HORVS, 70 g/ha, applied alone) it was 70%; in the data set with spring wheat (TRZAS) (setting [4]) it was 10%. Further, the “% visual injury, Ob” value in the data set on spring wheat (TRZAS) (setting [5]) is given as 25%; in the data set with spring wheat (TRZAS) (setting [6]), 40%; with spring wheat (TRZAS) (TRZAS, 35 g/ha, applied alone) it was 50%; in the data set on spring wheat (TRZAS) (TRZAS, 70 g/ha, applied alone) it was 70%.

In the case of `COc1c(N)nc(-c2ccc3sccc3c2)nc1C(=O)O` [compound 19], the plant injury at 4.375 g/ha with winter rape (BRSNW) (4.375 g/ha) amounted to 0%. Moreover, the plant injury at 8.75 g/ha in the data set with winter rape (BRSNW) (8.75 g/ha) turned out to be 10%. Moreover, the plant injury at 17.5 g/ha in the data set on winter rape (BRSNW) (17.5 g/ha) turned out to be 20%. Also, the plant injury at 35 g/ha in the data set with winter rape (BRSNW) (35 g/ha) stood at 25%. Also, in the data set with winter rape (BRSNW) (70 g/ha), the plant injury at 70 g/ha amounted to 30%. Also, the figures for the pest or weed control at 4.375 g/ha in the data set with common poppy (PAPRH) and in the data set on kochia (KCHSC) were 80% and 0%, respectively. Further, the pest or weed control at 8.75 g/ha with common poppy (PAPRH) was 80%; with kochia (KCHSC), 0%. Further, the pest or weed control at 17.5 g/ha in the data set on common poppy (PAPRH) came to 85%; in the data set with kochia (KCHSC), 0%. For the same compound, the results for the pest or weed control at 35 g/ha in the data set on common poppy (PAPRH) and in the data set on kochia (KCHSC) were 90% and 10%, respectively. Besides, the pest or weed control at 70 g/ha with common poppy (PAPRH) amounted to 95%; in the data set on kochia (KCHSC), 60%. In addition, the “% visual injury, Ob” value in the data set on spring barley (HORVS) (setting [1]) amounted to 0%; with spring barley (HORVS) (setting [2]) it was 10%; in the data set on spring barley (HORVS) (setting [3]) it was 10%; with spring barley (HORVS) (HORVS, 35 g/ha, applied alone), 15%; in the data set with spring barley (HORVS) (HORVS, 70 g/ha, applied alone), 35%; in the data set on spring wheat (TRZAS) (setting [4]), 0%. In addition, the “% visual injury, Ob” value turned out to be 10% in the data set with spring wheat (TRZAS) (setting [5]); 30% in the data set on spring wheat (TRZAS) (setting [6]); 40% with spring wheat (TRZAS) (TRZAS, 35 g/ha, applied alone); 50% in the data set with spring wheat (TRZAS) (TRZAS, 70 g/ha, applied alone).

Regarding `Nc1c(F)c(-c2ccc3cc[nH]c3c2F)nc(C(=O)[O-])c1Cl.[K+]` [compound 7], the figures for the pest or weed control at 20 g/ha in the data set on kochia (KCHSC), in the data set on pigweed (AMARE) and with lambsquarters (CHEAL) were 65%, 88% and 90%, respectively. For the same compound, the “% visual injury, Ob” value in the data set with spring barley (HORVS) (alone, 20 g/ha) worked out at 5%; in the data set with spring wheat (TRZAS) (alone, 20 g/ha), 10%.
